Experimental data from paper PMC12340637, “Transport of Small Aliphatic Amines by Polyspecific Solute Carriers: Deciphering Structure–Function Relationships” (ACS Pharmacology & Translational Science, 2025).

Assays:
[1] = target: MATE2-K (SLC47A2) (Homo sapiens, UniProt Q86VL8)
[2] = target: T1, OCT2 (SLC22A2) (Homo sapiens, UniProt O15244); experiment: Cellular uptake into OCT2-overexpressing HEK293 cells vs EV control cells (HPLC-MS/MS); settings: label = favoured enantiomer
T1 sequence (O15244 1-555): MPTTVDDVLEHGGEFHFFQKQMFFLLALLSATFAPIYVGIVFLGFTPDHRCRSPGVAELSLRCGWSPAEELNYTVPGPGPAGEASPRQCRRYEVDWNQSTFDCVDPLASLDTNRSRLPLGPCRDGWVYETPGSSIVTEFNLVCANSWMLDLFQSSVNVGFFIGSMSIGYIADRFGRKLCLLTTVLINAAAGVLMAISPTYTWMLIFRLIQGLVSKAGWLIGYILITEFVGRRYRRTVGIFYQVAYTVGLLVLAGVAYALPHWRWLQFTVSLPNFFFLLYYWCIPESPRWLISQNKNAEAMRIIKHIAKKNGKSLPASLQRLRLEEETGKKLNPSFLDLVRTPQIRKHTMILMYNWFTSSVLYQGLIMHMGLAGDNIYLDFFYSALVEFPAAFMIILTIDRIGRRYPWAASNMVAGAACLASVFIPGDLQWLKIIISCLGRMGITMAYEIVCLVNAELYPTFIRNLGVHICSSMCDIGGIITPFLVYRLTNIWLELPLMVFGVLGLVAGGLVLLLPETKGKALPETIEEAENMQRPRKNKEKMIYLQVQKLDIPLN

[3] = target: T2, OCT3 (SLC22A3) (Homo sapiens, UniProt O75751); experiment: Cellular uptake into OCT3-overexpressing HEK293 cells vs EV control cells (HPLC-MS/MS); settings: label = favoured enantiomer
T2 sequence (O75751 1-556): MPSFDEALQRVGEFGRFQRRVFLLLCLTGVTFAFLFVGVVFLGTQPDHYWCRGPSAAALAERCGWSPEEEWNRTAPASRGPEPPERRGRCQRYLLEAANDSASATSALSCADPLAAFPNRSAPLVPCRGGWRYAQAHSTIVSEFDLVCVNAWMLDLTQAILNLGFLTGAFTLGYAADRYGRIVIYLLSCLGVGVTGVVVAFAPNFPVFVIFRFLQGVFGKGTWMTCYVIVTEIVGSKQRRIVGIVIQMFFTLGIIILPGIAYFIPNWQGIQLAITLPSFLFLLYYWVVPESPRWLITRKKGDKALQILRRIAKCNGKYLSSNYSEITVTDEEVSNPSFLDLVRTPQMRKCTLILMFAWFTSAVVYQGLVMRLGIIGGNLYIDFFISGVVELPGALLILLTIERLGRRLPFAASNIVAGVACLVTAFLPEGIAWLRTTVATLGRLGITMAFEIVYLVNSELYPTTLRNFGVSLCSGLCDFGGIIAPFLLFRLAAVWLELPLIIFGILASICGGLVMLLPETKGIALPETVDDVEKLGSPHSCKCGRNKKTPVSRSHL

[4] = target: T3, OCT1 (SLC22A1) (Homo sapiens, UniProt O15245); experiment: Cellular uptake into OCT1-overexpressing HEK293 cells vs EV control cells (HPLC-MS/MS); settings: label = favoured enantiomer
T3 sequence (O15245 1-554): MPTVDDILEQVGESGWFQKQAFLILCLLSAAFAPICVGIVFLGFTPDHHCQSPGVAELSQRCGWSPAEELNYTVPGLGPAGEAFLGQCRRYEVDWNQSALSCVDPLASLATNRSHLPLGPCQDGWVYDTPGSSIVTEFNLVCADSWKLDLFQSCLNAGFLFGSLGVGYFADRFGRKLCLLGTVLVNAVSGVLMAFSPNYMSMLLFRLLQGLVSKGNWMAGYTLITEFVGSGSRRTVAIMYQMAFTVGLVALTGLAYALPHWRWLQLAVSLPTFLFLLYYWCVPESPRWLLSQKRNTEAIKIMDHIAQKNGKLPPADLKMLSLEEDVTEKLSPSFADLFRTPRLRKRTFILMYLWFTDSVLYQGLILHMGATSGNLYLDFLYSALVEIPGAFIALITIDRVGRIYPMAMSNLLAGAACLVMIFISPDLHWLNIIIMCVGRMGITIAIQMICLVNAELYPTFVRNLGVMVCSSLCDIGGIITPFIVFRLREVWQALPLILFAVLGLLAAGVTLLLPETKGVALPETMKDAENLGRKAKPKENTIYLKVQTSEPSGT

MATE2-K (SLC47A2), sequence (Q86VL8 1-566 isoform Q86VL8-3): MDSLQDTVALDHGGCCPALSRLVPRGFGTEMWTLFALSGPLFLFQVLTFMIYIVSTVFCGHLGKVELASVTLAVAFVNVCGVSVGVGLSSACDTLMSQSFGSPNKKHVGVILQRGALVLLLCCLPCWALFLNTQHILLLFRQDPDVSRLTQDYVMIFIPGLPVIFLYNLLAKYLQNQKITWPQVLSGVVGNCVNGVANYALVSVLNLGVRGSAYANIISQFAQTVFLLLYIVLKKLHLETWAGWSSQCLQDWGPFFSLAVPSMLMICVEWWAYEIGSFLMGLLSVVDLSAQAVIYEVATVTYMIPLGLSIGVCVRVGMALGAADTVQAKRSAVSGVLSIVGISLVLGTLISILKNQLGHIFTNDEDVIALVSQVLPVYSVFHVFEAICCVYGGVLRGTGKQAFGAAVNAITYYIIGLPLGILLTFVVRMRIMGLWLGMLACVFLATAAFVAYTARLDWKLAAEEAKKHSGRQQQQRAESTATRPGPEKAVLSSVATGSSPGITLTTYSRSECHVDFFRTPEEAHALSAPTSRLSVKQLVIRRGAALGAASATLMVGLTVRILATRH

stereoselectivity MATE2K (uptake ratio of the more strongly transported enantiomer divided by that of the other) [1]: 1.1-fold for (S)
stereoselectivity OCT2 (uptake ratio of the more strongly transported enantiomer divided by that of the other) [2]: 1.2-fold for (S)
stereoselectivity OCT3 (uptake ratio of the more strongly transported enantiomer divided by that of the other) [3]: 1.4-fold for (S)
stereoselectivity OCT1 (uptake ratio of the more strongly transported enantiomer divided by that of the other) [4]: 1.3-fold for (S)
SMILES: C[C@H](N)CN [(S)-(−)-1,2-diaminopropane]
